From ChEMBL document CHEMBL3994622, “Design and synthesis of new RAF kinase-inhibiting antiproliferative quinoline derivatives. Part 2: Diarylurea derivatives” (Eur J Med Chem, 2017)

Columns and labels:
NCI-H226 = assay: Growth inhibition of human NCI-H226 cells assessed as cell growth at 0.005 uM incubated for 48 hrs by sulforhodamine B assay relative to control; type: functional; settings: NCI-H226, 48 h, read-out: Activity
NCI-H23 [1] = assay: Growth inhibition of human NCI-H23 cells assessed as cell growth at 0.005 uM incubated for 48 hrs by sulforhodamine B assay relative to control; type: functional; settings: NCI-H23, 48 h, read-out: Activity
HCC 2998 = assay: Growth inhibition of human HCC2998 cells assessed as cell growth at 0.005 uM incubated for 48 hrs by sulforhodamine B assay relative to control; type: functional; settings: HCC 2998, 48 h, read-out: Activity
HT-29 = assay: Growth inhibition of human HT-29 cells assessed as cell growth at 0.005 uM incubated for 48 hrs by sulforhodamine B assay relative to control; type: functional; settings: HT-29, 48 h, read-out: Activity
SF-268 = assay: Growth inhibition of human SF268 cells assessed as cell growth at 0.005 uM incubated for 48 hrs by sulforhodamine B assay relative to control; type: functional; settings: SF-268, 48 h, read-out: Activity
NCI/ADR-RES = assay: Growth inhibition of human NCI/ADR-RES cells assessed as cell growth at 0.005 uM incubated for 48 hrs by sulforhodamine B assay relative to control; type: functional; settings: read-out: Activity
SK-OV-3 = assay: Growth inhibition of human SKOV3 cells assessed as cell growth at 0.005 uM incubated for 48 hrs by sulforhodamine B assay relative to control; type: functional; settings: SK-OV-3, 48 h, read-out: Activity
786-0 = assay: Growth inhibition of human 786-0 cells assessed as cell growth at 0.005 uM incubated for 48 hrs by sulforhodamine B assay relative to control; type: functional; settings: 786-0, 48 h, read-out: Activity
UO-31 = assay: Growth inhibition of human UO31 cells assessed as cell growth at 0.005 uM incubated for 48 hrs by sulforhodamine B assay relative to control; type: functional; settings: UO-31, 48 h, read-out: Activity
MCF7 = assay: Growth inhibition of human MCF7 cells assessed as cell growth at 0.005 uM incubated for 48 hrs by sulforhodamine B assay relative to control; type: functional; settings: MCF7, 48 h, read-out: Activity
Hs-578T [2] = assay: Growth inhibition of human Hs 578T cells assessed as cell growth at 0.005 uM incubated for 48 hrs by sulforhodamine B assay relative to control; type: functional; settings: read-out: Activity
NCI-H23 [3] = assay: Growth inhibition of human NCI-H23 cells assessed as cell growth at 0.05 uM incubated for 48 hrs by sulforhodamine B assay relative to control; type: functional; settings: NCI-H23, 48 h, read-out: Activity
SW-620 = assay: Growth inhibition of human SW620 cells assessed as cell growth at 0.05 uM incubated for 48 hrs by sulforhodamine B assay relative to control; type: functional; settings: SW-620, 48 h, read-out: Activity
SK-MEL-2 = assay: Growth inhibition of human SK-MEL-2 cells assessed as cell growth at 0.05 uM incubated for 48 hrs by sulforhodamine B assay relative to control; type: functional; settings: SK-MEL-2, 48 h, read-out: Activity
T47D [4] = assay: Growth inhibition of human T47D cells assessed as cell growth at 0.05 uM incubated for 48 hrs by sulforhodamine B assay relative to control; type: functional; settings: read-out: Activity
NCI-H322M = assay: Growth inhibition of human NCI-H322M cells assessed as cell growth at 0.5 uM incubated for 48 hrs by sulforhodamine B assay relative to control; type: functional; settings: read-out: Activity
SF-539 = assay: Growth inhibition of human SF539 cells assessed as cell growth at 0.5 uM incubated for 48 hrs by sulforhodamine B assay relative to control; type: functional; settings: SF-539, 48 h, read-out: Activity
SK-MEL-5 = assay: Growth inhibition of human SK-MEL-5 cells assessed as cell growth at 0.5 uM incubated for 48 hrs by sulforhodamine B assay relative to control; type: functional; settings: SK-MEL-5, 48 h, read-out: Activity
T47D [5] = assay: Growth inhibition of human T47D cells assessed as cell growth at 0.5 uM incubated for 48 hrs by sulforhodamine B assay relative to control; type: functional; settings: read-out: Activity
COLO 205 = assay: Growth inhibition of human COLO205 cells assessed as cell growth at 5 uM incubated for 48 hrs by sulforhodamine B assay relative to control; type: functional; settings: COLO 205, 48 h, read-out: Activity
SNB-19 = assay: Growth inhibition of human SNB19 cells assessed as cell growth at 5 uM incubated for 48 hrs by sulforhodamine B assay relative to control; type: functional; settings: SNB-19, 48 h, read-out: Activity
SK-MEL-28 = assay: Growth inhibition of human SK-MEL-28 cells assessed as cell growth at 5 uM incubated for 48 hrs by sulforhodamine B assay relative to control; type: functional; settings: SK-MEL-28, 48 h, read-out: Activity
UACC-257 = assay: Growth inhibition of human UACC257 cells assessed as cell growth at 5 uM incubated for 48 hrs by sulforhodamine B assay relative to control; type: functional; settings: UACC-257, 48 h, read-out: Activity
Hs-578T [6] = assay: Growth inhibition of human Hs 578T cells assessed as cell growth at 5 uM incubated for 48 hrs by sulforhodamine B assay relative to control; type: functional; settings: read-out: Activity
HCT-116 = assay: Growth inhibition of human HCT116 cells assessed as cell growth at 50 uM incubated for 48 hrs by sulforhodamine B assay relative to control; type: functional; settings: HCT-116, 48 h, read-out: Activity
A498 = assay: Growth inhibition of human A498 cells assessed as cell growth at 50 uM incubated for 48 hrs by sulforhodamine B assay relative to control; type: functional; settings: A498, 48 h, read-out: Activity
SN12C = assay: Growth inhibition of human SN12C cells assessed as cell growth at 50 uM incubated for 48 hrs by sulforhodamine B assay relative to control; type: functional; settings: read-out: Activity
[7] = biological target: Receptor tyrosine-protein kinase erbB-2 (Homo sapiens) (UniProt P04626); assay: Inhibition of human HER2 at 10 uM using poly[Glu:Tyr] (4:1) as substrate in presence of [33P]ATP by Hotspot assay relative to control
Sequence of Receptor tyrosine-protein kinase erbB-2 (Homo sapiens) (P04626 whole entry): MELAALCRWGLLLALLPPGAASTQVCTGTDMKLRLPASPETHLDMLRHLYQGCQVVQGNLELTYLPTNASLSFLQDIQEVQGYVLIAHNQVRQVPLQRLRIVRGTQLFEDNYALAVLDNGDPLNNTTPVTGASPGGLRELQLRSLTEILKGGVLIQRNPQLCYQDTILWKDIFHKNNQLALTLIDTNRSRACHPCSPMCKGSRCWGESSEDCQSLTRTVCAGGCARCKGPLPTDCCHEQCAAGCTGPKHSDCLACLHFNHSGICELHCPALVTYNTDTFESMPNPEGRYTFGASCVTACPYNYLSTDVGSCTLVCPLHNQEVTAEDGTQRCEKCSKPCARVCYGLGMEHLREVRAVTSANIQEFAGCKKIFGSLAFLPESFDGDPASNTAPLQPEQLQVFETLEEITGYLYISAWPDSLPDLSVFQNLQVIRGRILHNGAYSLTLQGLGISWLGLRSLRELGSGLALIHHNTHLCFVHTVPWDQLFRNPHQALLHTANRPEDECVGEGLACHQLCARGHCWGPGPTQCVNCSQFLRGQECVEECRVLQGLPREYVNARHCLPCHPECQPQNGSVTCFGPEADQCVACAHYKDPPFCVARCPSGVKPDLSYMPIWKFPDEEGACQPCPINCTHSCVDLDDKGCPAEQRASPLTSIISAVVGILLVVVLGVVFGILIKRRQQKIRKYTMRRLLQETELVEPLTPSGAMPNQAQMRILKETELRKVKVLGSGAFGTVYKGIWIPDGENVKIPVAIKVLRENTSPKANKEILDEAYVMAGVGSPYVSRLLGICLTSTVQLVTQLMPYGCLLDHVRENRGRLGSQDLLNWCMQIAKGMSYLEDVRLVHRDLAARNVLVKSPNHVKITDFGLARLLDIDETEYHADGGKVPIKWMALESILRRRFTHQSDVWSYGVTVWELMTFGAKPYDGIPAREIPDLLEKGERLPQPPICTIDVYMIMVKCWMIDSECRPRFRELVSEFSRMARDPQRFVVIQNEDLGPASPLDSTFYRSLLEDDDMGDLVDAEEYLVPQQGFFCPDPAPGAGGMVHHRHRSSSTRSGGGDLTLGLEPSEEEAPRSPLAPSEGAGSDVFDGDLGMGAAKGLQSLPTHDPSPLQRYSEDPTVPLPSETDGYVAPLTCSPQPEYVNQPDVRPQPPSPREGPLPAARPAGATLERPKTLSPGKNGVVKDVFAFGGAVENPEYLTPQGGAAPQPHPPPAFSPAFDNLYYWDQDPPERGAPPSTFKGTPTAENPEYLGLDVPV

LOX IMVI = assay: Growth inhibition of human LOXIMVI cells assessed as cell growth at 0.03 uM incubated for 48 hrs by sulforhodamine B assay relative to control; type: functional; settings: read-out: Activity
MDA-MB-468 [8] = assay: Growth inhibition of human MDA-MB-468 cells assessed as cell growth at 0.01 uM incubated for 48 hrs by sulforhodamine B assay relative to control; type: functional; settings: MDA-MB-468, 48 h, read-out: Activity
MDA-MB-468 [9] = assay: Growth inhibition of human MDA-MB-468 cells assessed as cell growth at 1 uM incubated for 48 hrs by sulforhodamine B assay relative to control; type: functional; settings: MDA-MB-468, 48 h, read-out: Activity
T47D [10] = assay: Growth inhibition of human T47D cells assessed as cell growth at 10 uM incubated for 48 hrs by sulforhodamine B assay relative to control; type: functional; settings: read-out: Activity
MDA-MB-468 [11] = assay: Growth inhibition of human MDA-MB-468 cells assessed as cell growth at 10 uM incubated for 48 hrs by sulforhodamine B assay relative to control; type: functional; settings: MDA-MB-468, 48 h, read-out: Activity
MDA-MB-468 [12] = assay: Growth inhibition of human MDA-MB-468 cells assessed as cell growth at 0.3 uM incubated for 48 hrs by sulforhodamine B assay relative to control; type: functional; settings: MDA-MB-468, 48 h, read-out: Activity

`COc1cc2cc(Oc3ccc(NC(=O)Nc4cccc(C(F)(F)F)c4)cc3)c(C)nc2cc1OC` gave a growth at 0.005 µM (NCI-H226) of 96%, a growth at 0.005 µM (NCI-H23 [1]) of 96% and a growth at 0.005 µM (HCC 2998) of 99%. The growth at 0.005 µM (HT-29) was 100%, the growth at 0.005 µM (SF-268) was 90% and the growth at 0.005 µM (NCI/ADR-RES) was 105%. For the same molecule, the growth at 0.005 µM (SK-OV-3) was 98%, the growth at 0.005 µM (786-0) was 98% and the growth at 0.005 µM (UO-31) was 90%. The growth at 0.005 µM (MCF7) was 90%, the growth at 0.005 µM (Hs-578T [2]) was 90% and the growth at 0.05 µM (NCI-H23 [3]) was 99%. The growth at 0.05 µM (SW-620) was 98%, the growth at 0.05 µM (SK-MEL-2) was 104% and the growth at 0.05 µM (T47D [4]) was 101%. It also gave a growth at 0.5 µM (NCI-H322M) of 107%, a growth at 0.5 µM (SF-539) of 104% and a growth at 0.5 µM (SK-MEL-5) of 93%. It also gave a growth at 0.5 µM (T47D [5]) of 94%, a growth at 5 µM (COLO 205) of -48% and a growth at 5 µM (SNB-19) of 24%. It also gave a growth at 5 µM (SK-MEL-28) of 21%, a growth at 5 µM (UACC-257) of -13% and a growth at 5 µM (Hs-578T [6]) of -8%. It also gave a growth at 50 µM (HCT-116) of -86%, a growth at 50 µM (A498) of -65% and a growth at 50 µM (SN12C) of -21%.

With `COc1cc2cc(Oc3ccc(NC(=O)Nc4ccc(Cl)c(C(F)(F)F)c4)cc3)c(C)nc2cc1OC` the inhibition [7] was -7.21% and the growth at 0.03 µM (LOX IMVI) was 99%.

In the case of `COc1cc2cc(Oc3ccc(NC(=O)Nc4cc(C(F)(F)F)cc(C(F)(F)F)c4)cc3)c(C)nc2cc1OC`, the growth at 0.01 µM (MDA-MB-468 [8]) is reported as 101%, the growth at 1 µM (MDA-MB-468 [9]) is reported as 53% and the growth at 10 µM (T47D [10]) is reported as -21%. The growth at 10 µM (MDA-MB-468 [11]) was -36%.

`Cc1nc2cc(O)c(O)cc2cc1Oc1ccc(NC(=O)Nc2ccc(Cl)c(Cl)c2)cc1` was tested, and the growth at 0.3 µM (MDA-MB-468 [12]) was 99%.
